Read-outs that look alike come from different tables or passages of the source.
Assays:
[1] = test system: Key Broadleaf Weed and Crop Species; test: Post-emergent Test II herbicidal activity (Table 5); assay type: in vivo; conditions: post-emergence, 336 h, 14 days after application; for pest or weed control at 70 g/ha: application rate 70 g ai/ha; for pest or weed control at 140 g/ha: application rate 140 g ai/ha
How it was run: (§1)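 Greenhouse-grown plants at first or second true leaf stage were sprayed post-emergence with compound in acetone/DMSO-based aqueous spray containing crop oil concentrate and surfactant, at 187 L/ha, highest rate plus ½× to 1/16× dilutions. After 14 d, injury was scored visually versus untreated plants, 0 (none) to 100% (complete kill).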

[2] = test system: Key Grass and Sedge Weeds as well as Grass Crops; test: Post-emergent Test II herbicidal activity (Table 6); assay type: in vivo; conditions: post-emergence, 336 h; for pest or weed control at 70 g/ha: 70 g ai/ha; for pest or weed control at 140 g/ha: 140 g ai/ha
How it was run: as §1

[3] = ABUTH: velvetleaf (Abutilon theophrasti), read-out: Visual Growth Reduction (%) 14 Days After Application, ABUTH
[4] = AMARE: redroot pigweed (Amaranthus retroflexus), read-out: Visual Growth Reduction (%) 14 Days After Application, AMARE
[5] = BRSNN: oilseed-rape, canola (Brassica napus), read-out: Visual Growth Reduction (%) 14 Days After Application, BRSNN
[6] = CHEAL: lambsquarters (Chenopodium album), read-out: Visual Growth Reduction (%) 14 Days After Application, CHEAL
[7] = EPHHL: wild poinsettia (Euphorbia heterophylla), read-out: Visual Growth Reduction (%) 14 Days After Application, EPHHL
[8] = HELAN: sunflower (Helianthus annuus), read-out: Visual Growth Reduction (%) 14 Days After Application, HELAN
[9] = VIOTR: wild pansy (Viola tricolor), read-out: Visual Growth Reduction (%) 14 Days After Application, VIOTR
[10] = CYPES: yellow nutsedge (Cyperus esculentus), read-out: Visual Growth Reduction (%) 14 Days After Application, CYPES
[11] = DIGSA: crabgrass (Digitaria sanguinalis), read-out: Visual Growth Reduction (%) 14 Days After Application, DIGSA
[12] = ECHCG: barnyardgrass (Echinochloa crus-galli), read-out: Visual Growth Reduction (%) 14 Days After Application, ECHCG
[13] = ORYSA: rice (Oryza sativa), crop, read-out: Visual Growth Reduction (%) 14 Days After Application, ORYSA
[14] = SETFA: giant foxtail (Setaria faberi), read-out: Visual Growth Reduction (%) 14 Days After Application, SETFA
[15] = SORVU: grain sorghum (Sorghum vulgare), read-out: Visual Growth Reduction (%) 14 Days After Application, SORVU
[16] = TRZSS (wheat, Triticum aestivum), crop, read-out: Visual Growth Reduction (%) 14 Days After Application, TRZSS
[17] = ZEAMX: maize, corn (Zea mays), crop, read-out: Visual Growth Reduction (%) 14 Days After Application, ZEAMX

COC(=O)c1nc(-c2ccc(Br)cc2F)c(F)c(N)c1Cl [Compound 52]
pest or weed control at 70 g/ha [1, 3]: 95 to 100%
pest or weed control at 140 g/ha [1, 3]: 95 to 100%
pest or weed control at 70 g/ha [1, 4]: 95 to 100%
pest or weed control at 140 g/ha [1, 4]: 95 to 100%
pest or weed control at 70 g/ha [1, 5]: 95 to 100%
pest or weed control at 140 g/ha [1, 5]: 95 to 100%
pest or weed control at 70 g/ha [1, 6]: 95 to 100%
pest or weed control at 140 g/ha [1, 6]: 95 to 100%
pest or weed control at 70 g/ha [1, 7]: 95 to 100%
pest or weed control at 140 g/ha [1, 7]: 95 to 100%
pest or weed control at 70 g/ha [1, 8]: 95 to 100%
pest or weed control at 140 g/ha [1, 8]: 95 to 100%
pest or weed control at 70 g/ha [1, 9]: 95 to 100%
pest or weed control at 140 g/ha [1, 9]: 95 to 100%
pest or weed control at 70 g/ha [2, 10]: 95 to 100%
pest or weed control at 140 g/ha [2, 10]: 95 to 100%
pest or weed control at 70 g/ha [2, 11]: 85 to 94%
pest or weed control at 140 g/ha [2, 11]: 85 to 94%
pest or weed control at 70 g/ha [2, 12]: 60 to 74%
pest or weed control at 140 g/ha [2, 12]: 75 to 84%
pest or weed control at 70 g/ha [2, 13]: 0 to 29%
pest or weed control at 140 g/ha [2, 13]: 0 to 29%
pest or weed control at 140 g/ha [2, 14]: 85 to 94%
pest or weed control at 70 g/ha [2, 15]: 95 to 100%
pest or weed control at 140 g/ha [2, 15]: 95 to 100%
pest or weed control at 70 g/ha [2, 16]: 30 to 44%
pest or weed control at 140 g/ha [2, 16]: 30 to 44%
pest or weed control at 70 g/ha [2, 17]: 95 to 100%
pest or weed control at 140 g/ha [2, 17]: 95 to 100%
melting point: 146 to 148 °C

C#Cc1ccc(-c2nc(N)c(OC)c(C(=O)OC)n2)c(F)c1 [Compound 59]
pest or weed control at 70 g/ha [1, 3]: 0 to 29%
pest or weed control at 140 g/ha [1, 3]: 0 to 29%
pest or weed control at 70 g/ha [1, 4]: 0 to 29%
pest or weed control at 140 g/ha [1, 4]: 0 to 29%
pest or weed control at 70 g/ha [1, 5]: 30 to 44%
pest or weed control at 140 g/ha [1, 5]: 45 to 59%
pest or weed control at 70 g/ha [1, 6]: 0 to 29%
pest or weed control at 140 g/ha [1, 6]: 60 to 74%
pest or weed control at 70 g/ha [1, 7]: 0 to 29%
pest or weed control at 140 g/ha [1, 7]: 0 to 29%
pest or weed control at 70 g/ha [1, 8]: 60 to 74%
pest or weed control at 140 g/ha [1, 8]: 60 to 74%
pest or weed control at 70 g/ha [1, 9]: 0 to 29%
pest or weed control at 140 g/ha [1, 9]: 0 to 29%
pest or weed control at 70 g/ha [2, 10]: 0 to 29%
pest or weed control at 140 g/ha [2, 10]: 0 to 29%
pest or weed control at 70 g/ha [2, 11]: 0 to 29%
pest or weed control at 140 g/ha [2, 11]: 0 to 29%
pest or weed control at 70 g/ha [2, 12]: 0 to 29%
pest or weed control at 140 g/ha [2, 12]: 0 to 29%
pest or weed control at 70 g/ha [2, 13]: 0 to 29%
pest or weed control at 140 g/ha [2, 13]: 0 to 29%
pest or weed control at 70 g/ha [2, 14]: 0 to 29%
pest or weed control at 140 g/ha [2, 14]: 0 to 29%
pest or weed control at 70 g/ha [2, 15]: 0 to 29%
pest or weed control at 140 g/ha [2, 15]: 0 to 29%
pest or weed control at 70 g/ha [2, 16]: 0 to 29%
pest or weed control at 140 g/ha [2, 16]: 0 to 29%
pest or weed control at 70 g/ha [2, 17]: 0 to 29%
pest or weed control at 140 g/ha [2, 17]: 0 to 29%
melting point: 203 to 205 °C

Reference: US9113629B2, “4-amino-6-(4-substituted-phenyl)-picolinates and 6-amino-2-(4-substituted-phenyl)-pyrimidine-4-carboxylates and their use as herbicides” (DOW AGROSCIENCES LLC, priority 2013, dated 2015)
